Laboratory results taken from patent publication US7371734B2, “Oligonucleotide compositions and their use for the modulation of immune responses” (Bioniche Life Sciences Inc., priority 2002, dated 2008).
Marks after values point to notes of the source that are not given here.

Columns and labels:
Assay type in all cases: cell-based
Human dendritic cells [1] = assay: Induction of IFN-gamma production by DC (ELISA); details: 100 μg, 48 hours
Experimental: (§1) Human dendritic cells were obtained from Clonetics (San Diego, Calif., USA) and were cultured in the medium recommended by Clonetics. DC were obtained from three different individuals (see Table 1). Major histocompatability typing was performed on each of these individuals and several of the HLA (human leukocyte antigens) types are shown.
DC were seeded in 1.0 ml at 1.0×10^5 cells/ml in 6-well flat-bottomed tissue culture plates for 48 hours with 100 μg of6 base N1A, N1B, N2A, N2B, N3A, N3B, N4A, N4B, N5A, N5B, N6A, N6B, N7A or N7B polynucleotides. Production of IFN-gamma was determined in 100 μl of culture supernatant using a commercial ELISA (BioSource) after 48 hours of incubation. Results are expressed as the “fold” (x) increase in IFN-gamma production by treated DC compared to control cells.

Human dendritic cells [2] = assay: MHC-II levels at the DC cell surface (flow cytometry); details: DC from individual B; 100 μg, 48 hours
Experimental: as §1
DC from individual B were seeded in 1.0 ml at 1.0×10^5 cells/ml in 6-well flat-bottomed tissue culture plates for 48 hours with 100 μg of 6 base N1A, N1B, N2A, N2B, N3A, N3B, N5A, N5B, N6A, N6B, N7A or N7B polynucleotides. The level of MHC II at the cell surface was determined after 48 hours of incubation by flow cytometry using a FITC-conjugated monoclonal antibody directed to MHC II (Serotec) and analyzed by CELLQuest Pro. Results are expressed as the percentage of MHC II^hi DC following treatment.

Human dendritic cells [3] = assay: Induction of IL-12 production by DC (ELISA); details: 100 μg, 48 hours
Experimental: as §1
DC were seeded in 1.0 ml at 1.0×10^5 cells/ml in 6-well flat-bottomed tissue culture plates for 48 hours with 100 μg of 6 base N1A, N1B, N2A, N2B, N3A, N3B, N4A, N4B, N5A, N5B, N6A, N6B, N7A or N7B polynucleotides. Production of IL-12 was determined in 100 μl of culture supernatant using a commercial ELISA (BioSource) after 48 hours of incubation. Results are expressed as the “fold” (x) increase in IL-12 production by treated DC compared to control cells.

Human dendritic cells [4] = assay: CD40 levels at the DC cell surface (flow cytometry); details: 100 μg, 48 hours
Experimental: as §1
DC from individuals B and C were seeded in 1.0 ml at 1.0×10^5 cells/ml in 6-well flat-bottomed tissue culture plates for 48 hours with 100 μg of 6 base N1A, N1B, N2A, N2B, N3A, N3B, N4A, N4B, N5A, N5B, N6A, N6B, N7A or N7B polynucleotides. The level of CD40 at the cell surface was determined after 48 hours of incubation by flow cytometry (FACSCalibur system) using a FITC-conjugated monoclonal antibody directed to CD40 and analyzed by CELLQuest Pro (all from Becton Dickinson). Results are expressed as the percentage of CD40^hi DC following treatment. The term “CD40^hi” refers to a population of cells identified by flow cytometry as having higher than baseline expression of CD40.

Human dendritic cells [5] = assay: Increase in cell size and granularity of DC (flow cytometry); details: 100 μg polynucleotide, 48 hours
Experimental: as §1
DC were seeded in 1.0 ml at 1.0×10^5 cells/ml in 6-well flat-bottomed tissue culture plates for 48 hours with 100 μg of 6 base N1A, N1B, N2A, N2B, N3A, N3B, N4A, N4B, N5A, N5B, N6A, N6B, N7A or N7B polynucleotides. Cell size (FCS: forward side scatter) and granularity (S SC: side light scatter) were determined by flow cytometry using a FACSCalibur and analyzed using the CELLQuest Pro software (both from Becton-Dickinson, San Diego, Calif., USA). Percentage of DC showing a FCS>500 units and a SSC>400 units have been determined after treatment with 3-OH, 5-OH polynucleotides for DC isolated from three different individuals.

Human dendritic cells [6] = assay: CD80 levels at the DC cell surface (flow cytometry); details: 100 μg, 48 hours
Experimental: as §1
DC from individuals B and C were seeded in 1.0 ml at 1.0×10^5 cells/ml in 6-well flat-bottomed tissue culture plates for 48 hours with 100 μg of 6 base N1A, N1B, N2A, N2B, N3A, N3B, N4A, N4B, N5A, N5B, N6A, N6B, N7A or N7B polynucleotides. The level of CD80 at the cell surface was determined after 48 hours of incubation by flow cytometry using a FITC-conjugated monoclonal antibody directed to CD80 (Serotec, Oxford, U.K.) and analyzed by CELLQuest. Results are expressed as the percentage of CD80^hi DC following treatment.

Human dendritic cells [7] = assay: Induction of IL-1beta production by DC (ELISA); details: 100 μg, 48 hours
Experimental: as §1
DC were seeded in 1.0 ml at 1.0×10^5 cells/ml in 6-well flat-bottomed tissue culture plates for 48 hours with 100 μg of 6 base N1A, N1B, N2A, N2B, N3A, N3B, N4A, N4B, N5A, N5B, N6A, N6B, N7A or N7B polynucleotides. Production of IL-1beta was determined in 100 μl of culture supernatant using a commercial ELISA (BioSource, Camarillo, Calif., USA) after 48 hours of incubation. Results are expressed as the “fold” (x) increase in IL-1beta production by treated DC compared to control cells.

Human dendritic cells [8] = assay: CD86 levels at the DC cell surface (flow cytometry); details: 100 μg, 48 hours
Experimental: as §1
DC from individuals B and C were seeded in 1.0 ml at 1.0×10^5 cells/ml in 6-well flat-bottomed tissue culture plates for 48 hours with 100 μg of 6 base N1A, N1B, N2A, N2B, N3A, N3B, N4A, N4B, N5A, N5B, N6A, N6B, N7A or N7B polynucleotides. The level of CD86 at the cell surface was determined after 48 hours of incubation by flow cytometry using a PE-conjugated monoclonal antibody directed to CD86 (Serotec) and analyzed by CELLQuest Pro. Results are expressed as the percentage of CD86^hi DC following treatment.

Human dendritic cells [9] = assay: Endocytosis of FITC-dextran by DC; details: DC from individual B, 100 μg, 24 hours, untreated control = 100
Experimental: as §1
DC from individual B were seeded in 1.0 ml at 1.0×10^5 cells/ml in 6-well flat-bottomed tissue culture plates for 24 hours with 1 mg/ml of FITC-dextran (20 kDa; Sigma-Aldrich) in the absence or presence of 100 μg of 6 base N2A, N2B, N3A, N3B, N5A, N5B, and N6B polynucleotides at 4° C. (control cell surface binding of FITC-dextran) and 37° C. (to assess endocytosis). Cells were washed three times with ice-cold phosphate buffered saline and analyzed by flow cytometry using CELLQuest Pro. Results are expressed as relative endocytic rate (normalized Δ Mean Fluorescence Value (Δ MFV)). Δ MFV=MFV of DC exposed to FITC-dextran at 37° C.−MFV of DC exposed to FITC-dextran at 4° C. Δ MFV=(ΔMFVsequence/ΔMFVcontrol)×100.

Row | Substance | IFN-gamma production by DC (fold increase compared to untreated DC) (Human dendritic cells [1]; DC isolated from individual A) [fold] | IFN-gamma production by DC (fold increase compared to untreated DC) (Human dendritic cells [1]; DC isolated from individual B) [fold] | IFN-gamma production by DC (fold increase compared to untreated DC) (Human dendritic cells [1]; DC isolated from individual C) [fold] | The percentage of MHC-II^hi DC following treatment (Human dendritic cells [2]) | IL-12 production by DC (fold increase compared to untreated DC) (Human dendritic cells [3]; DC isolated from individual A) [fold] | IL-12 production by DC (fold increase compared to untreated DC) (Human dendritic cells [3]; DC isolated from individual B) [fold] | IL-12 production by DC (fold increase compared to untreated DC) (Human dendritic cells [3]; DC isolated from individual C) [fold] | The percentage of CD40^hi DC following treatment (Human dendritic cells [4]; DC from individual B) | The percentage of CD40^hi DC following treatment (Human dendritic cells [4]; DC from individual C) | Percentage of DC showing a FCS > 500 units and a SSC > 400 units (Human dendritic cells [5]; DC isolated from individual A) [%] | Percentage of DC showing a FCS > 500 units and a SSC > 400 units (Human dendritic cells [5]; DC isolated from individual B) [%] | Percentage of DC showing a FCS > 500 units and a SSC > 400 units (Human dendritic cells [5]; DC isolated from individual C) [%] | The percentage of CD80^hi DC following treatment (Human dendritic cells [6]; DC from individual B) [%] | The percentage of CD80^hi DC following treatment (Human dendritic cells [6]; DC from individual C) | IL-1beta production by DC (fold increase compared to untreated DC) (Human dendritic cells [7]; DC isolated from individual A) [fold] | IL-1beta production by DC (fold increase compared to untreated DC) (Human dendritic cells [7]; DC isolated from individual B) [fold] | IL-1beta production by DC (fold increase compared to untreated DC) (Human dendritic cells [7]; DC isolated from individual C) [fold] | The percentage of CD86^hi DC following treatment (Human dendritic cells [8]; DC from individual B) [%] | The percentage of CD86^hi DC following treatment (Human dendritic cells [8]; DC from individual C) [%] | Relative endocytic rate (normalized Δ MFV) (Human dendritic cells [9])
1 | 5′ GTGTGT3′ [N1B] | 0.9 | 1.0 | 1.0 | 7% | 1.5 | 1.3 | 1.1 | 31** % | 18% | 5 | 17 | 25 | 11 | 13% | 1.0 | 1.0 | 1.0 | 19 | 27 | –
2 | 5′GGGGGG3′ [N5A] (unmodified DNA) | 1.1 | 1.1 | 1.0 | 19% | 0.9 | 1.1 | 1.0 | 40** % | 30** % | 10 | 19 | 36 | 18 | 14% | 1.1 | 1.1 | 1.0 | 20 | 16 | 209
3 | 5′GGGCGG3′ [N7B] (DNA, all phosphorothioate, methylation of C not given here) | 1.1 | – | 1.1 | 31** % | 1.8 | – | 1.0 | – | 18% | 16 | – | 31 | 5 | 5% | 1.1 | – | 0.9 | – | 34 | –
4 | 5′GGCCGG3′ [N4B] (DNA, all phosphorothioate, methylation of C not given here) | 1.0 | – | 1.0 | – | 1.3 | – | 2.6 | – | 16% | 4 | – | 32 | 9 | 13% | 1.0 | – | 1.0 | – | 32 | –
5 | 5′GGCCGG3′ [N4A] (DNA, all phosphodiester, methylation of C not given here) | 1.0 | – | 1.0 | – | 1.2 | – | 1.0 | – | 16% | 4 | – | 19 | 11 | 21** % | 0.9 | – | 1.0 | – | 23 | –
